Measurements: patent US20110003013A1, “METHOD OF INCREASING METABOLISM” (GARVAN INSTITUTE OF MEDICAL RESEARCH, priority 2008, published 2011)
“Also recorded” adds a separate entry of the source.

Assays:
[1] = Insulin tolerance test; format: in vivo, C57Bl/6 mice
Procedure: (§1) Each mouse was weighed weekly and the blood glucose levels assessed at random times every second week alternating with rectal temperatures. Intraperitoneal Glucose Tolerance Testing (IPGTT) was carried out at week 5 and 21 using 2g glucose/kg dose. Insulin Tolerance Testing (ITT) was carried at week 2 (0.33 U/kg) and week 6 (0.50 U/kg). Glucose Stimulated Insulin Secretion (GSIS)(3g glucose/kg) was studied out at week 7. Food intake studies were carried out at weeks 0, 4, 8 and 25. Indirect calorimetry was performed using the Oxymax System (Columbus Instruments, Columbus, Ohio) at weeks 0, 4, 8 and 25. Measurements were taken over a 12-hour light cycle and a 12-hour dark cycle.
Mice were fasted overnight for 16 hours. Insulin was injected at 0.5 units per kg (diluted in 1× PBS with 1% bovine serum albumin) by intraperitoneal injection. Blood glucose was measured via glucometer prior to, and at 10, 20, 30, 45 and 60 minutes after the insulin injection.

[2] = Body weight of ob/ob mice on chow diet with DFS; format: in vivo; conditions: vs control ob/ob mice
Procedure: Studies were also performed using ob/ob mice, in particular, 5 ob/ob controls and 5ob/ob mice administered DFS. Wild type C57bl/6 mice were also used as controls, 4 untreated and 4 administered DFS.

[3] = Weight of visceral, white and brown adipose tissue; format: in vivo, C57Bl/6 mice; conditions: high fat diet, vs control mice
[4] = Indirect calorimetry (Oxymax): VO2, VCO2, RER, heat, activity; format: in vivo, C57Bl/6 mice
Procedure: as §1
Mice were placed with ad libitum food and water in separate chambers in an 8 chamber, indirect open circuit calorimeter (Columbus Oxymax Respirometer 0246-002M, Columbus Instruments Ohio USA) for 36-48 hours. This machine obtains periodic measurements of the percentage of oxygen and carbon dioxide in the test chamber. Changes in gas concentrations are used to calculate the rate of oxygen consumption (VO2) and carbon dioxide production (VCO2) per mouse, with a readout every 27 minutes (Oxymax Software 0246-102M). The software calculates heat production per mouse and the respiratory exchange ratio (RER) (VCO2/VO2) using VO2 and VCO2. Activity levels were simultaneously measured in 2 dimensions (Opto-M3 activity meter) using […] wavelength light beams. Ambulatory movements were registered when more than one light beams in the same axis were crossed by an animal in a given period of time. The last 24 hours of data were analysed to allow for an acclimatisation period.
The hourly mean VO2 and VCO2 (mL/hr/kg total body weight) were calculated by averaging the VO2 and VCO2 readings produced by the Oxymax software for each hour. VO2 and VCO2 per unit of lean body mass (VXX2LM) was calculated from the Oxymax results (VXX2) using the following equation: […]
The hourly mean RER and the total, light and dark RER were calculated in a similar manner to VO2 and VCO2. No adjustment for body weight was required.
Heat (total energy expenditure, kcal/hr/mouse) was calculated by the Oxymax software using the formula:
Heat=CV (calorific value)*VO2 where CV=3.815+(1.232*RER)
The hourly mean heat production and the total, light and dark heat production were calculated in a similar manner to VO2 and VCO2. Heat production per unit of lean body mass was calculated by dividing the Oxymax reading by unit of lean body mass.
To quantify activity levels, the total number of ambulatory movements in the x axis and the y axis was calculated per unit time for each mouse.
Oxymax data were analysed using t-tests.

[5] = system: HIF-1α; experiment: Western blot of liver lysates for HIF-1α; format: in vivo, C57Bl/6 mice; conditions: vs control
Procedure: Fresh tissues were removed rapidly from culled animals and kept frozen in the −80° C. freezer. They were then homogenized in lysis buffer and sonicated in cold RIPA buffer ([…] pH 7.4, 1% NP40, 0.25% sodium deoxycholate, […], 1 mM EDTA, 1 mM PMSF and protease inhibitor cocktail). 121 μg of protein sample was resolved on an 8% SDS PAGE gel. Proteins were transferred onto nitrocellulose membrane. Primary antibodies (HIF-1α, and (β-tubulin) were prepared in milk buffers at concentrations of 1:500 and 1:2000 respectively and the membrane was incubated overnight at 4° C. Membranes were then rinsed with Phosphate Buffered Solution containing Tween and HRP-conjugated secondary antibodies (at 1:1000 dilution). Proteins were visualised using enhanced chemiluminescence.

[6] = Fasting plasma insulin and glucose stimulated insulin secretion (GSIS); format: in vivo, C57Bl/6 mice
Procedure: as §1
(§2) Plasma insulin was measured with ELISA kits. Liver transaminases and plasma lipids were performed by Sydpath Pathology, St Vincent's Hospital. Liver triglycerides were extracted using methanol/chloroform 2:1 and detected using colorimetric assay.

[7] = system: AKT2, IRS1, IRS2, PFK, GLUT2, HSL, LPL; experiment: Liver gene expression by quantitative real-time PCR; format: in vivo, C57Bl/6 mice; conditions: vs control
From the text: Tissues were homogenized in extraction buffer and RNA was isolated according to the RNeasy Kit protocol. […] The level of mRNA for each gene was normalized to the level of TATA box binding-protein (TBP) mRNA in each sample.

[8] = Iron levels in the liver; format: in vivo, C57Bl/6 mice; conditions: vs CON mice, data not shown
Procedure: (§3) Mice livers were fixed in 10% buffered formaldehyde, embedded in paraffin and slides were prepared using standard haematoxylin and eosin as well as Perl staining to visualize hepatic iron.

[9] = Blood glucose levels assessed at random times; format: in vivo, C57Bl/6 mice; conditions: over 9 weeks of high fat diet, vs CON mice
Procedure: as §1

[10] = Blood and liver safety parameters (haemoglobin, white blood counts, transaminases, serum iron); format: in vivo, C57Bl/6 mice; conditions: vs control mice
Procedure: as §2

[11] = Food intake studies; format: in vivo, C57Bl/6 mice
Procedure: as §1

[12] = Body weight of mice on high fat diet with DFS; format: in vivo, C57Bl/6 mice; conditions: Studies 1-4, vs control mice, from about 3 to about 10 weeks after commencement
Procedure: Four studies were performed using C57Bl/6 mice. Study 1 included 30 control mice and 30 mice administered DFS. Study 2 included 30 control mice and 30 mice administered DFS. Study 3 included 8 control mice and 8 mice administered DFS. Study 4 included 18 control mice and 18 mice administered DFS. Mice in Study 3 differed to those in studies 1 and 2 in so far as they were sourced from different colonies.
Mice were randomly separated equally into a treatment group receiving Deferasirox (DFS) or a control group (CON). DFS was powdered using a mortar and pestle and mixed in thoroughly with the dry mineral mix prior to the addition of melted lard and then left to harden overnight in the refrigerator to form high-fat diet (HFD). From 6 weeks of age for up to 25 weeks, the mice were then fed ad libitum this HFD, from which 45% of their calories were derived from animal lard.
Each mouse was weighed weekly and the blood glucose levels assessed at random times every second week alternating with rectal temperatures. Intraperitoneal Glucose Tolerance Testing (IPGTT) was carried out at week 5 and 21 using 2g glucose/kg dose. Insulin Tolerance Testing (ITT) was carried at week 2 (0.33 U/kg) and week 6 (0.50 U/kg). Glucose Stimulated Insulin Secretion (GSIS)(3g glucose/kg) was studied out at week 7. Food intake studies were carried out at weeks 0, 4, 8 and 25. […]

[13] = Intraperitoneal glucose tolerance test; format: in vivo, C57Bl/6 mice; conditions: 2 g glucose/kg i.p., vs CON mice
Procedure: as §1
Mice were fasted overnight for 16 hours. Glucose was administered at a dose of 2g/kg by intraperitoneal injection in the form of a 20% dextrose solution. Blood glucose was measured via glucometer (Accucheck Advantage II, Roche, Australia) prior to, and at 15, 30, 60, 90 and 120 minutes after the dextrose injection.
Mice were fasted for 6 hours before intraperitoneal administration of glucose (2 g/kg dose) in sterile water. Blood glucose was measured by glucometer at the times indicated.

[14] = HFD-induced hepatic lipid accumulation (steatosis); format: in vivo, C57Bl/6 mice; conditions: 10 weeks on HFD, vs CON mice, data not shown
Procedure: as §3, §2

Which “insulin tolerance (ITT)” value ([1]; following five weeks of high fat diet, vs CON mice) does the source give for O=C(O)c1ccc(-n2nc(-c3ccccc3O)nc2-c2ccccc2O)cc1 [DFS, 4-[3,5-Bis (2-hydroxyphenyl)-1H-1,2,4-triazol-1-yl]-benzoic acid] here?
The value was “performed significantly better; also recorded: significantly improved insulin tolerance”.

And the “proportion of animals with glucoses <2 mmol/L” value ([1]; vs 38% of controls, p<0.001, indicating improved insulin sensitivity, data not shown)?
The value was “About 80%”.

And the “weight gained over an eight week period” value ([2]; ob/ob mice on chow diet, p<0.0005)?
Its value is “significantly lower; also recorded: gained significantly less weight”.

What about the body weight ([2]; ob/ob mice on normal chow diet) of the same compound?
Its body weight is “reduced body weight (or reduced body weight increase)”.

What about the “weight of brown adipose tissue (BAT)” value [3] of the same compound?
The value was “unchanged”.

What about the “weight of visceral adipose tissue (VAT)” value [3] of the same compound?
Its value is “reduced; also recorded: significantly lighter”.

What about the “weight of white adipose tissue (WAT)” value [3] of the same compound?
Its value is “reduced; also recorded: significantly lighter”.

And the “oxygen consumption (VO2)” value ([4]; after 8 weeks of high fat diet and DFS, vs control mice)?
Its value is “significantly increased; also recorded: consume significantly more oxygen than control mice”.

And the “oxygen consumption (VO2)” value ([4]; after 25 weeks of high fat diet and DFS, vs control mice)?
Its value is “significantly increased; also recorded: consume significantly more oxygen than control mice”.

And the metabolic rate ([4]; high fat diet, vs control mice)?
The metabolic rate was “significantly higher metabolic rate”.

What about the “respiratory exchange ratio (RER) (VCO2/VO2)” value ([4]; high fat diet, vs control mice) of the same compound?
Its value is “significantly reduced”.

What about the “energy expenditure (EE) or heat production” value ([4]; over a day, high fat diet, vs control mice) of the same compound?
The value was “significantly higher energy expenditure”.

And the “oxygen consumption (VO2) / baseline metabolic rate” value ([4]; week 0 (initial week of high fat diet and DFS), vs control mice)?
The value was “similar; also recorded: no significant difference”.

What about the CO2 production ([4]; week 8 of continuous DFS treatment, vs control mice) of the same compound?
Its CO2 production is “significantly increased”.

And the CO2 production ([4]; week 25 of continuous DFS treatment, vs control mice)?
Its CO2 production is “significantly increased”.

And the “level of HIF-1α relative to β-tubulin” value [5]?
Its value is “increased HIF-1α; also recorded: higher levels of HIF-1α”.

What about the “mean fasting insulin levels vs control” value ([6]; high fat diet, p<0.005) of the same compound?
Its value is “significantly lower”.

And the fasting insulin levels ([6]; high fat diet, mean + SEM, p=0.005 vs control)?
Its fasting insulin levels is 2837+874 pmol/L.

What about the “glucose stimulated insulin secretion (GSIS) profile” value ([6]; week 7, 3 g glucose/kg, vs control) of the same compound?
The value was “better preservation”.

And the AKT2 gene expression ([7]; normalized to TBP mRNA)?
The AKT2 gene expression was “significantly increased”.

And the IRS1 gene expression ([7]; normalized to TBP mRNA)?
Its IRS1 gene expression is “significantly increased; also recorded: increased expression”.

What about the IRS2 gene expression ([7]; normalized to TBP mRNA) of the same compound?
Its IRS2 gene expression is “significantly increased”.

And the PFK gene expression ([7]; normalized to TBP mRNA)?
Its PFK gene expression is “significantly increased”.

What about the GLUT2 expression [7] of the same compound?
The GLUT2 expression was “trend for improved”.

What about the “hormone sensitive lipase (HSL) gene expression” value [7] of the same compound?
The value was “significantly increased; also recorded: increased expression”.

What about the “lipoprotein lipase (LPL) gene expression” value [7] of the same compound?
The value was “significantly increased; also recorded: increased expression”.

What about the liver iron levels [8] of the same compound?
Its liver iron levels is “lower iron levels”.

What about the “blood glucose levels at random times” value [9] of the same compound?
Its value is “generally had lower blood glucose levels; also recorded: significantly lower blood glucose levels”.

And the “haemoglobin levels / anaemia” value [10]?
Its value is “does not result in anaemia; also recorded: No significant difference”.

What about the “serum alanine transaminase levels” value [10] of the same compound?
The value was “No significant difference”.

And the “serum aspartate aminotransferase levels” value [10]?
The value was “No significant difference”.

What about the serum iron levels [10] of the same compound?
The serum iron levels was “No significant difference”.

And the “significantly reduced liver function” value [10]?
Its value is “does not result in”.

What about the white blood counts [10] of the same compound?
Its white blood counts is “No significant difference”.

And the “food consumed adjusted per body weight” value ([11]; by 25 weeks, HFD, vs CON mice)?
Its value is “eaten more HFD adjusted per body weight; also recorded: consumed significantly more food per gram of body weight”.

What about the feed intake ([11]; week 0, vs CON animals) of the same compound?
The feed intake was “did not differ”.

And the “body weight / weight gain” value [12]?
The value was “significantly reduced body weights; also recorded: decreases weight gain”.

What about the glucose tolerance ([13]; 21 weeks of high fat diet) of the same compound?
Its glucose tolerance is “continued beyond at least week 21; also recorded: significantly improved insulin tolerance”.

What about the glucose tolerance ([13]; five weeks of high fat diet) of the same compound?
Its glucose tolerance is “significantly better glucose tolerance; also recorded: significantly improved glucose tolerance”.

And the macroscopic hepatic steatosis [14]?
The macroscopic hepatic steatosis was “relatively protected”.

For CC(=O)N(O)CCCCCNC(=O)CCC(=O)N(O)CCCCCNC(=O)CCC(=O)N(O)CCCCCN [DFO], which “metabolism in a subject” value ([4]; summary statement of the inventors' work) is on record?
The value was “capable of increasing metabolism”.
